Assay results taken from paper PMC3695357, “Identification of Novel IGF1R Kinase Inhibitors by Molecular Modeling and High-Throughput Screening” (Acta Naturae, 2013).

Columns and labels:
Assay type in all cases: biochemical
[1] = target: BTK kinase (Homo sapiens, UniProt Q06187); test: BTK ADP-Glo kinase selectivity assay, single concentration; settings: remaining kinase activity at 40 μM compound, 50 μM ATP
Procedure: (§1) Kinase selectivity assays with InsR (dose-response measurements) and Met, Syk and BTK kinases (single point compound concentrations) using the ADP-Glo readout system were run under optimized experimental conditions similar to the IGF1R assay with regard to the kinetic parameters of kinase reactions.
(§2) The amounts of the Met, Syk, and BTK enzymes and the incubation time were optimized to ensure an ATP conversion not higher than 20% in all cases. The typical assay window (signal/background) was 3–5 for all kinases. The final volumes of the Met, Syk, and BTK kinase assay reaction mixtures were 5 μL. Two μL of the enzyme solution in a 1× reaction buffer (6 ng Met, 8 ng BTK, 4 ng Syk), 1 μL of the compound solution in a 2× reaction buffer, the ATP and substrate mixture in a 0.5× reaction mixture were added sequentially. The composition of the 1× reaction buffer was 40 mM Tris, 20 mM magnesium chloride, 0.1 mg/ml bovine serum albumin, 500 μM DTT at pH 7.5 with 1% final concentration of the DMSO, 50 μM ATP, and 0.2 mg/ml Poly(Glu4, Tyr1) substrates. The buffer was supplemented with 2 mM manganese (II) chloride in the case of BTK kinase. Compounds were tested at 40 μM concentrations. In each experiment, 6 wells with the enzyme, but no added compounds, were used as negative inhibition controls; 6 wells without tested compounds and the enzyme and 6 wells with the enzyme and 0.5–1 μM staurosporine were used as positive inhibition controls. Pre-incubation of the reaction mixture with compounds prior to ATP addition was performed for 20 min at 25°C in all experiments. The incubation of the reaction mixture lasted for 25 min at 37°C. All compounds were tested in 4 to 6 repeats. Conditions of ADP detection were as follows: 40 min incubation with an ADP-Glo reagent, followed by 30 min with a detection reagent at 25°C. Luminescence was read using a BMG Polarstar Omega reader at a gain setting of 4095 and measurement time of 0.5 s.

[2] = target: Syk kinase (Homo sapiens, UniProt P43405); test: Syk ADP-Glo kinase selectivity assay, single concentration; settings: remaining kinase activity at 40 μM compound, 50 μM ATP
Procedure: as §1, §2

[3] = target: T1, InsR kinase (Homo sapiens, UniProt P06213); test: InsR ADP-Glo kinase assay, dose-response; settings: for IC50: ADP-Glo, 8-point curves from 100 μM; for stronger inhibition of InsR versus IGF1R: from IC50 values of Table 1
T1 construct: the amount of recombinant insulin receptor kinase was 2 ng per well
Procedure: as §1
Dose-response and IC50 measurements for the confirmed screening hits were conducted for IGF1R and InsR kinases. The conditions were similar to the HTS conditions described above, except that the compounds were plated in 8-point curves serially diluted 1:2 from 100 μM top concentrations and with a 1% final DMSO throughout, in quadruplicates for each compound dilution point. The time of incubation of kinase reaction mixtures was 2.5 or 4.5 hours at 27°C in different experiments both for the insulin kinase receptor and IGF1R, the dithiotreitol (DTT ) concentration was 500 μM, and the amount of recombinant insulin receptor kinase was 2 ng per well. DTT concentration was elevated to enhance the stability of the enzymes during 4.5 h incubation experiments. Compounds were typically serially 2-fold diluted in pure DMSO starting from 10 mM down to 19.5 μM to produce the final concentrations ranging from […] in a 1% DMSO-aqueous reaction buffer.

[4] = target: T2, IGF1R kinase (Homo sapiens, UniProt P08069); test: IGF1R ADP-Glo kinase assay, dose-response; settings: for IC50: ADP-Glo, 8-point curves from 100 μM, 50 μM ATP; for selectivity for IGF1R versus InsR: from IC50 values of Table 1
T2 construct: This assay utilizes a recombinant intracellular kinase domain fragment of IGF1R; purchased Promega Corp
Procedure: (§3) Multi-well liquid dispensing for setting up assays was performed using either the robotic liquid handler PlateMate Plus or the manual electronic multichannel micropipettes Matrix Impact (Thermo Scientific, Hudson, NH, USA). High-throughput Screening (HTS), kinase selectivity, and dose-response (IC50) assays were read in the luminescence mode using the PolarStar Omega reader (BMG Labtech, Ortenberg, Germany) or M5 reader (Molecular Devices Corp., Sunnyvale, CA). IGF1R ADP-Glo data in relative luminescence units (RLU) were collected from the plate readers, and the percentage of activity (% Activity) was determined for each point as follows: % Activity = 100*(RLU sample – RLU no kinase control avg)/(RLU kinase control avg – RLU no kinase control avg). The screening data were processed and visualized using Microsoft Excel templates designed to calculate the inhibition values, the Z’-factor, and GraphPad Prism 5 (GraphPad Software, Inc., La Jolla, CA) for IC50 analysis. The doseresponse curves of Percent Activity were fit in Prism, using a sigmoidal variable slope fit with the maximum % activity and the minimum % activity fixed at 100% and 0%, respectively. The Z′ factor, a statistical measure of variability and reproducibility for HTS assays, was determined using the following formula: Z′ = 1-[3 × (SDsample+SDcontol)/|Msample-Mcontrol|] [12], where SD denotes the standard deviation and M denotes the mean for the samples and controls, respectively. Prior to starting HTS, assay conditions were optimized and validated with regard to the maximum ATP turnover (never exceeding 20%), an acceptable signal-to-background ratio (“assay window”) of at least 6, an acceptable Z’-factor of at least 0.6, as well as day-to-day and plate-to-plate reproducibility of the screening data. All primary screening was performed at 20 μM compound concentrations, and some of the weak hits were subsequently re-tested at higher concentrations (40 or 80 μM) for confirmation. Statistically significant HTS hits in the primary screening were defined as those that produced a kinase activity signal at least three standard deviations lower than the mean of the assay plate run (not including the plate controls). Lineweaver- Burk plots were created in Excel or Prism using the standard algorithms. All assay development and validation and high-throughput screening procedures were carried out according to the general guidelines as published on the U.S. National Chemical Genomics Center web site (NC GC Assay Guidance Manual and High-throughput Assay Guidance Criteria, http://www.ncbi.nlm.nih.gov/books/NBK53196/).
IGF1R high throughput screening (HTS) assays using the IGF1R Kinase System and ADP-Glo readout system (Promega Corp.) were performed in a final volume of 7 μL per test compound using a 384-well small volume microplate format. All liquid dispensing was done using the PlateMate Plus robotic liquid handler. 3 μL aliquots of the enzyme/substrate mixture containing 1 μg of the IGF1Rtide peptide substrate and 4 ng of recombinant IGF1R kinase in a 0.66× assay buffer were transferred to the plate wells. The assay buffer (1×) consisted of 40 mM Tris chloride, 20 mM magnesium chloride, 0,1 mg/ml bovine serum albumin, 2 mM manganese chloride, and 250 μM dithiothreitol (DTT ). To add the tested compounds to the reaction, starting stocks of 10 mM compounds in dimethyl sulfoxide (DMSO) were diluted with DMSO to 2 mM. Next, 3 μL aliquots of 2 mM compound stock solutions in DMSO were transferred to 83 μL volumes of a 1× reaction buffer and thoroughly mixed. Aqueous compound solution aliquots of 2 μL were then transferred into the assay plate to get a final concentration of each compound of 20 μM in 1% DMSO. The plates were pre-incubated at 27°C for 10 min with gentle shaking (300 rpm). The assay was started by adding 2 μL of the ATP stock solution to the reaction mixture to achieve a final ATP concentration of 50 μM. […]

[5] = target: Met kinase (Homo sapiens, UniProt P08581); test: Met ADP-Glo kinase selectivity assay, single concentration; settings: remaining kinase activity at 40 μM compound, 50 μM ATP
Procedure: as §1, §2

[6] = target: T2, IGF1R kinase; test: Michaelis-Menten kinetics / Lineweaver-Burk competition analysis; settings: Lineweaver-Burk plot; for inhibition mechanism with regard to ATP: IGF1Rtide 143 μg/ml, ATP titrated; for inhibition mechanism with regard to the substrate: poly(Glu4,Tyr1) titrated, ATP 250 μM
Procedure: as §3
Serial dilutions of ATP and substrate polypeptide poly(Glu4,Tyr1) were tested in IGF1R kinase assays with the inhibitors L1 and T4 to produce the kinetic data for Lineweaver-Burk plots. […]

T2 sequence (P08069 999-1274 limits assumed): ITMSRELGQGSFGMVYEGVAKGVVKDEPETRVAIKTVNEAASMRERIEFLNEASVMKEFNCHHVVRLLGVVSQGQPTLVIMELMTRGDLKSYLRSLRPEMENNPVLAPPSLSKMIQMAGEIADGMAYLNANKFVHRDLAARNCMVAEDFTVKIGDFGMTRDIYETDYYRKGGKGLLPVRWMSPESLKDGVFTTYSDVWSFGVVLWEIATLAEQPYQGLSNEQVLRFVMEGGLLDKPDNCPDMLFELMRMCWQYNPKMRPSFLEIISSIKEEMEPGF
BTK kinase, sequence (Q06187 whole entry): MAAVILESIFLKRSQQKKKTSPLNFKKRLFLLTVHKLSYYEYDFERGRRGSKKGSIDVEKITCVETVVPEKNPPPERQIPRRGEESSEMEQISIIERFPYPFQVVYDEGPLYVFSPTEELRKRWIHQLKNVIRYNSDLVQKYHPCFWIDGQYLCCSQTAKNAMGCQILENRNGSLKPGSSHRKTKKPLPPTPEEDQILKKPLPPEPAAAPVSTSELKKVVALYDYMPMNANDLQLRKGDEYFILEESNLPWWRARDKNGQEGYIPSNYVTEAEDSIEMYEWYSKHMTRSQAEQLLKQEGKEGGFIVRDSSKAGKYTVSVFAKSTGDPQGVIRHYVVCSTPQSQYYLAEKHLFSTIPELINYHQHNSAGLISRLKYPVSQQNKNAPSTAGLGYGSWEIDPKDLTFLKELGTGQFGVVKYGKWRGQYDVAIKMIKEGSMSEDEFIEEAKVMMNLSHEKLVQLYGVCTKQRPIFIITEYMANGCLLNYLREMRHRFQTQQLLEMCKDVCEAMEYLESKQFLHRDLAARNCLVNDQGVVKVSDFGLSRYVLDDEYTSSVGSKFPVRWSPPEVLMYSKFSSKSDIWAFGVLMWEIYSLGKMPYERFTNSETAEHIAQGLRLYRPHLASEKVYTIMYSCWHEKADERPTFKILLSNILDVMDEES
T1 sequence (P06213 28-1382): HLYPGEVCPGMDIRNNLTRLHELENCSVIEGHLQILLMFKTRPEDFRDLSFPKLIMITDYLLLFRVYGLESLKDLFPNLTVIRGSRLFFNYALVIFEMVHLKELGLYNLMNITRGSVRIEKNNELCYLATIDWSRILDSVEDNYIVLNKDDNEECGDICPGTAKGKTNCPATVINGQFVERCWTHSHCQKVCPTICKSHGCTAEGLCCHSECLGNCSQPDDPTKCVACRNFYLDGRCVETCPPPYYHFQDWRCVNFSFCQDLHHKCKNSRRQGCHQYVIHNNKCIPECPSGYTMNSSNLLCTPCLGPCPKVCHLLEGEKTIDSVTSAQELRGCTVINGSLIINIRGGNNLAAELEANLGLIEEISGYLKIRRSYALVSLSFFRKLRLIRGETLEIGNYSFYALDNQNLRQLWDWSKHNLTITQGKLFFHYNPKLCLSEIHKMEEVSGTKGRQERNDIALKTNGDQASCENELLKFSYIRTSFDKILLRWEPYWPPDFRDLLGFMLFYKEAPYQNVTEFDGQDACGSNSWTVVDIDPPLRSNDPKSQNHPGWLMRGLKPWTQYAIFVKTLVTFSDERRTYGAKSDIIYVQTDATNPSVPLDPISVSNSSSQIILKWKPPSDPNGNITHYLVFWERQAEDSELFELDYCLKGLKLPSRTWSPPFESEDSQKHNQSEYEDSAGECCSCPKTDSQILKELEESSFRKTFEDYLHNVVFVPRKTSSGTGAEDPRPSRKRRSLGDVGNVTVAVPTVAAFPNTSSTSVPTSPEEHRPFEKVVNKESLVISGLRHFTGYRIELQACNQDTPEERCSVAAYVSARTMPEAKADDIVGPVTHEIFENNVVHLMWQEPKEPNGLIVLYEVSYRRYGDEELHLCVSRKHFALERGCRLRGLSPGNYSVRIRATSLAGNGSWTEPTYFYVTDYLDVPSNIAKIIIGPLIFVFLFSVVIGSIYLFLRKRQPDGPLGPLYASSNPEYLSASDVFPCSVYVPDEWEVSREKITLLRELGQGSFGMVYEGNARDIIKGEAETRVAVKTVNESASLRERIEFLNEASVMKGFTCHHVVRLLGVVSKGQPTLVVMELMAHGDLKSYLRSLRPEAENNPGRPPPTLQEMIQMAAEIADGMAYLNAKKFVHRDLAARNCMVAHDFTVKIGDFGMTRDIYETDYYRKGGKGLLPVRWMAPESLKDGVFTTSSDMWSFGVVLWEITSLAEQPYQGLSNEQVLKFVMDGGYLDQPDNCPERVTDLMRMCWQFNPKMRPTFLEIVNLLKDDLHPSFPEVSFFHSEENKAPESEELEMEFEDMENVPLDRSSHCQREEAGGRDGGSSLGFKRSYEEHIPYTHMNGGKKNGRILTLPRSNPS
Met kinase, sequence (P08581 25-1390): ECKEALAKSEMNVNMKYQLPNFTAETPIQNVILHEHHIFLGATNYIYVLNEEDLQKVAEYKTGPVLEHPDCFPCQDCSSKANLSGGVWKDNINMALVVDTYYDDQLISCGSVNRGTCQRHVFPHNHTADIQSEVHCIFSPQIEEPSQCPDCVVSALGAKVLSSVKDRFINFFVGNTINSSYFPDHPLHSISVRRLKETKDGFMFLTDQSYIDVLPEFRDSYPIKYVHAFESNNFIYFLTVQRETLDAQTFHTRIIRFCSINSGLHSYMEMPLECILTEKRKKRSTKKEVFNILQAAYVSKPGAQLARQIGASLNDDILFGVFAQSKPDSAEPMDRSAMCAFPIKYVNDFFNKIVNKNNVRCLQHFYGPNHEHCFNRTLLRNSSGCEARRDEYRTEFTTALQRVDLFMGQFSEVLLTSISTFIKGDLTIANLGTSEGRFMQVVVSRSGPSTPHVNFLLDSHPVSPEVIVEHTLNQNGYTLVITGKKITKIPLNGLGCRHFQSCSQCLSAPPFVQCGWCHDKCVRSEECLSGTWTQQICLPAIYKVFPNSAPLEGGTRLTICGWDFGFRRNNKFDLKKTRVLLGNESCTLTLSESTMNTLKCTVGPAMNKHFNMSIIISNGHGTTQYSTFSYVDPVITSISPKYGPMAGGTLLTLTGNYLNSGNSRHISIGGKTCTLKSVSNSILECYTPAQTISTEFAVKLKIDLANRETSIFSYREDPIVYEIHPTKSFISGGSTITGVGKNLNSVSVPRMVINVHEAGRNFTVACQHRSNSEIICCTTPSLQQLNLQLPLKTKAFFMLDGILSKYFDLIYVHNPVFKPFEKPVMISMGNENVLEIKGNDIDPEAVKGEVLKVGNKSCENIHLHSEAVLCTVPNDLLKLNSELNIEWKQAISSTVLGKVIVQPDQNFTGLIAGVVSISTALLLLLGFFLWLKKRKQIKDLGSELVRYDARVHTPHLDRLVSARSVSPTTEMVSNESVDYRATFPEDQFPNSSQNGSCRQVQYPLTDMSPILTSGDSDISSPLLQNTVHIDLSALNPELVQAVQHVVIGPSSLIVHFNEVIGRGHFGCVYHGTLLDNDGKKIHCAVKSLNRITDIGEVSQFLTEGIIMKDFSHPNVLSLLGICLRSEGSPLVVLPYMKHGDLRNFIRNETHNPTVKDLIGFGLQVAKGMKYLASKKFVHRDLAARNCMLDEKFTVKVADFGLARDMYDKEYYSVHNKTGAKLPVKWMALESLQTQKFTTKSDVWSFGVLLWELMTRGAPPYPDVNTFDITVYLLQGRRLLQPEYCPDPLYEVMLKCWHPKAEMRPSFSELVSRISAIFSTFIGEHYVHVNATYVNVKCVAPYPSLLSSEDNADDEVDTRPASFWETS

Row | Compound | Activity Btk, % [1] [%] | Activity Syk, % [2] [%] | IC50 [3] [µM] | stronger inhibition of InsR versus IGF1R [3] | IC50 [4] [µM] | Activity Met, % [5] [%] | selectivity for IGF1R versus InsR [4] | inhibition mechanism with regard to ATP [6] | inhibition mechanism with regard to the substrate [6]
1 | CCOc1ccc(NS(=O)(=O)c2ccc3[nH]c(=O)cc(C(=O)Nc4ccn(C)n4)c3c2)cc1 [Compound T3] | 81 | 115 | 10 | 5-10 fold | ~100 | 98 |  |  | 
2 | COc1ccc(NC(=O)c2ccc3c(c2)OCCO3)cc1 [Compound L3] | 106 | 88 | 29 |  | 26 | 77 | essentially nonselective |  | 
3 | COc1cc(CNC(=O)c2ccc[nH]c2=S)ccc1OCc1ccncc1 [Compound T2] | 83 | 72 | 30 |  | 18 | 62 |  |  | 
4 | O=C(Nc1ccc2nccnc2c1)c1ccc2c(c1)OCCO2 [Compound L4] | 113 | 53 | 30 |  | 25 | 60 | essentially nonselective |  | 
5 | NS(=O)(=O)c1ccc(NNC(=O)c2ccc(NS(=O)(=O)c3cccs3)cc2)c([N+](=O)[O-])c1 [Compound T1] | 92 | 84 | 20 | 5-10 fold | ~100 | 78 |  |  | 
6 | O=C(NCc1ccc(Cn2ccnc2)cc1)c1ccc[nH]c1=S [Compound T4] | 82 | 115 | 10 |  | 7 | 75 |  | non-competitive inhibition | non-competitive inhibition
7 | O=C(Nc1ccc2c(c1)OCCO2)c1ccc2c(c1)OCCO2 [Compound L1] | 98 | 109 | 22 |  | 18 | 102 | essentially nonselective | non-competitive inhibition | non-competitive inhibition
8 | O=C(Nc1ccc2c(c1)OCO2)c1ccc2c(c1)OCCO2 [Compound L2] | 106 | 48 | 100 |  | 25 | 63 |  |  | 
